# Measurements reported in ChEMBL document CHEMBL1132474, “Synthesis and biological evaluation of the first N-alkyl cage dimeric 4-aryl-1,4-dihydropyridines as novel nonpeptidic HIV-1 protease inhibitors” (J Med Chem, 1999).
# Molecular target: T1, Human immunodeficiency virus type 1 protease (Human immunodeficiency virus 1, UniProt Q72874)
# Test: compound was evaluated for the inhibition of HIV-1 protease
row,Compound,IC50 [µM]
1,COc1ccc([C@H]2[C@]3(CO)C4NC5[C@@]2(CO)C2NC3[C@@]4(CO)[C@H](c3ccc(OC)cc3)[C@]52CO)cc1,209
2,OC[C@]12C3NC4[C@](CO)(C5NC1[C@]3(CO)[C@H](c1ccccc1)[C@@]45CO)[C@H]2c1ccccc1,227
3,COc1ccc([C@H]2[C@]3(CO)C4N(C)C5[C@]2(CO)C2N(C)C3[C@]4(CO)[C@H](c3ccc(OC)cc3)[C@]52CO)cc1,195
4,OC[C@]12C3N(Cc4ccccc4)C4[C@](CO)(C5N(Cc6ccccc6)C1[C@]3(CO)[C@H](c1ccccc1)[C@@]45CO)[C@H]2c1ccccc1,16.1
5,CN1C2[C@]3(CO)C4N(C)C5[C@@](CO)(C1[C@@]5(CO)[C@@H](c1ccccc1)[C@]24CO)[C@H]3c1ccccc1,262
6,COc1ccc([C@H]2[C@@]3(CO)C4N(Cc5ccccc5)C5[C@]2(CO)C2N(Cc6ccccc6)C3[C@]4(CO)[C@H](c3ccc(OC)cc3)[C@@]52CO)cc1,33

# Molecular target: T1, Human immunodeficiency virus type 1 protease
# Test: Compound was evaluated for its binding affinity against HIV-1 protease
row,Compound,Ki [µM]
1,OC[C@]12C3N(Cc4ccccc4)C4[C@](CO)(C5N(Cc6ccccc6)C1[C@]3(CO)[C@H](c1ccccc1)[C@@]45CO)[C@H]2c1ccccc1,7.8
